Results: patent US8465983B1, “Detection and delivery systems utilizing supported lipid bilayers” (priority 2005, dated 2013)

Test system: lipid membranes on porous silica beads packed in microcolumn
Test: Microfluidic study: release of dye from a bead packed microcolumn after TRITON X-100 injection
Assay type: biochemical
Details: 10 μL of 10% TRITON X-100 injected, 5 min no flow
Method: To create a packed microcolumn of lipid coated beads containing fluorescein, 2 μL of silica bead (diameter=20 μm) containing suspension (0.05 mg/μL) was injected into a microfluidic channel by applying vacuum at the outlet port of the microchannel, followed by the injection of 10 μL of fluorescein-entrapped bead (diameter=10 μm) containing suspension (0.05 mg/μL). The bead packed microchannel was mounted onto a vertical translational stage located in the sample holder space of the fluorimeter. Just below the bead segment, the microchannel was irradiated with an Argon ion laser (λ=488 nm, 8-10 mW) excitation. The inlet of the column was connected to a buffer reservoir while the outlet was connected to a vacuum source. As the fluorescence intensity at 520 nm was monitored, several microliters of Tris buffer was passed through the microchannel before the injection of TRITON X-100 detergent. […]
The packed segment was about 2 mm long. The disruption of the membranes on porous silica beads (containing fluorescein dye) by TRITON X-100 detergent was detected by monitoring the release of the dye from the beads, at a point just below the bead segment as indicated in FIG. 7B. […] The microcolumn was irradiated at 488 nm and fluorescence intensity was monitored at 520 nm. […]

TRITON X-100
initial signal (1st peak) less than that observed in suspension studies: ~80%
